#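 Exposure lasted 48 hours, with cells grown in 96-well plates and compounds tested at five concentrations. TGI: concentration producing complete growth inhibition.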
# What was measured:
# Test in all cases: inhibition of tumour cell growth, NCI panel, 48 h
# [1] = tested on: SK-OV-3 ovarian
# [2] = tested on: SNB-19 CNS
# [3] = tested on: SF-539 CNS
# [4] = tested on: HOP-62 NSCLC
# [5] = tested on: OVCAR-8 ovarian
# [6] = tested on: OVCAR-5 ovarian
# [7] = tested on: SW-620 colon
# [8] = tested on: HL-60(TB) leukemia
# [9] = tested on: EKVX NSCLC
# [10] = tested on: KM20L2 colon
# [11] = tested on: CCRF-CEM leukemia
# [12] = tested on: NCI-H522 lung
# [13] = tested on: LOX IMVI melanoma
# [14] = tested on: A549 NSCLC
# [15] = tested on: OVCAR-4 ovarian
# [16] = tested on: KM12 colon
# [17] = tested on: NCI-H23 lung
# [18] = tested on: A498 renal
# [19] = tested on: UO-31 renal
# [20] = tested on: SN12C renal
# [21] = tested on: NCI-H460 lung
# [22] = tested on: M19-MEL melanoma
# [23] = tested on: LXFL 529 NSCLC
# [24] = tested on: MALME-3M melanoma
# [25] = tested on: HCT-116 colon
# [26] = tested on: HT29 colon
# [27] = tested on: UACC-62 melanoma
# [28] = tested on: SF-268 CNS
# [29] = tested on: HOP-18 NSCLC
# [30] = tested on: RXF 393 renal
# [31] = tested on: NCI-H226 lung
# [32] = tested on: IGROV1 ovarian
# [33] = tested on: RPMI-8226 leukemia
# [34] = tested on: DMS 273 small cell lung
# [35] = tested on: CAKI-1 renal
# [36] = tested on: HCT-15 colon
# [37] = tested on: 786-0 renal
# [38] = tested on: SF-295 CNS
# [39] = tested on: TK-10 renal
# [40] = tested on: UACC-257 melanoma
# [41] = tested on: SNB-78 CNS
# [42] = tested on: COLO 205 colon
# [43] = tested on: OVCAR-3 ovarian
# [44] = tested on: HCC-2998 colon
# [45] = tested on: MOLT-4 leukemia
# [46] = tested on: SNB-75 CNS
# [47] = tested on: SR leukemia
# [48] = tested on: SK-MEL-5 melanoma
# [49] = tested on: SK-MEL-28 melanoma
# [50] = tested on: HOP-92 NSCLC
# [51] = tested on: ACHN renal
# [52] = tested on: SK-MEL-2 melanoma
# [53] = tested on: U251 CNS
# [54] = tested on: DMS 114 small cell lung
# [55] = tested on: K-562 leukemia
# [56] = tested on: DLD-1 colon
# [57] = tested on: M14 melanoma
compound,measurement,setting,value
O=C(CCN1CCCCC1CCO)Nc1ccc2c(c1)C(=O)c1ccc(NC(=O)CCN3CCCCC3CCO)cc1C2=O (centres undefined),TGI,[1],22.6 µM
same,TGI,[2],26.2 µM
same,TGI,[3],7.89 µM
same,TGI,[4],21.4 µM
same,TGI,[5],15.1 µM
same,TGI,[6],61.2 µM
same,TGI,[7],9.88 µM
same,TGI,[8],19 µM
same,TGI,[9],27 µM
same,TGI,[10],38 µM
same,TGI,[11],> 100 µM
same,TGI,[12],5.32 µM
same,TGI,[13],13.2 µM
same,TGI,[14],41.1 µM
same,TGI,[15],45.4 µM
same,TGI,[16],9.87 µM
same,TGI,[17],40.3 µM
same,TGI,[18],8.45 µM
same,TGI,[19],> 100 µM
same,TGI,[20],16 µM
same,TGI,[21],20.4 µM
same,TGI,[22],74.9 µM
same,TGI,[23],5.65 µM
same,TGI,[24],10.9 µM
same,TGI,[25],14.7 µM
same,TGI,[26],20.6 µM
same,TGI,[27],13.9 µM
same,TGI,[28],25.4 µM
same,TGI,[29],8.41 µM
same,TGI,[30],6.46 µM
same,TGI,[31],22.1 µM
same,TGI,[32],18.9 µM
same,TGI,[33],31.8 µM
same,TGI,[34],12.5 µM
same,TGI,[35],57.5 µM
same,TGI,[36],24.6 µM
same,TGI,[37],5.54 µM
same,TGI,[38],33.9 µM
same,TGI,[39],14.6 µM
same,TGI,[40],20.6 µM
same,TGI,[41],20.1 µM
same,TGI,[42],10.4 µM
same,TGI,[43],9.03 µM
same,TGI,[44],> 100 µM
same,TGI,[45],39.1 µM
same,TGI,[46],9.83 µM
same,TGI,[47],29.3 µM
same,TGI,[48],21.5 µM
same,TGI,[49],23.5 µM
same,TGI,[50],31 µM
same,TGI,[51],24.9 µM
same,TGI,[52],7.27 µM
same,TGI,[53],14.9 µM
same,TGI,[54],14.7 µM
same,TGI,[55],> 100 µM
same,TGI,[56],14.9 µM
CCCCCCCCCCCCCCCC[N+](C)(C)Cc1ccc(C[N+](C)(C)CCCCCCCCCCCCCCCC)cc1,TGI,[1],5.27 µM
same,TGI,[4],> 100 µM
same,TGI,[6],4.67 µM
same,TGI,[7],> 100 µM
same,TGI,[9],> 100 µM
same,TGI,[10],> 100 µM
same,TGI,[12],> 22.4 µM
same,TGI,[13],6.07 µM
same,TGI,[15],> 100 µM
same,TGI,[18],> 100 µM
same,TGI,[19],> 100 µM
same,TGI,[57],> 100 µM
same,TGI,[21],8.71 µM
same,TGI,[22],> 100 µM
same,TGI,[23],> 100 µM
same,TGI,[27],> 100 µM
same,TGI,[28],> 100 µM
same,TGI,[30],3.27 µM
same,TGI,[33],> 100 µM
same,TGI,[35],> 100 µM
same,TGI,[36],> 100 µM
same,TGI,[39],> 100 µM
same,TGI,[40],> 100 µM
same,TGI,[42],> 100 µM
same,TGI,[44],> 100 µM
same,TGI,[47],> 100 µM
same,TGI,[48],> 100 µM
same,TGI,[49],7.57 µM
same,TGI,[51],> 100 µM
same,TGI,[53],3.82 µM
same,TGI,[54],5.02 µM
same,TGI,[55],8.52 µM
same,TGI,[56],> 100 µM
